Assay results published in US4921797A, “C-terminal alpha-amidating enzyme and process for production and use thereof” (Hisayuki Matsuo, priority 1986, dated 1990).
Square brackets hold non-standard residues; d marks the D form. Ends that are not written are not given here.

Key:
Assay type in all cases: biochemical
[1] = target: T1, C-terminal α-amidating enzyme AE-I (Xenopus laevis, UniProt P08478); test: Conversion of substrate peptides to C-terminal α-amidated products by AE-I (reverse-phase HPLC); details: same procedure as Example 3; rates Tyr-Phe-Gly>Ac-Tyr-Phe-Gly>D-Tyr-Val-Gly>D-Tyr-Gly-Gly
T1 construct: C-terminal α-amidating enzymes of the present invention can be extracted from the skin of Xenopus laevis; from tissue; host or cells: Xenopus laevis skin
T1 sequence (P08478 37-400 isoform P08478-2 limits assumed): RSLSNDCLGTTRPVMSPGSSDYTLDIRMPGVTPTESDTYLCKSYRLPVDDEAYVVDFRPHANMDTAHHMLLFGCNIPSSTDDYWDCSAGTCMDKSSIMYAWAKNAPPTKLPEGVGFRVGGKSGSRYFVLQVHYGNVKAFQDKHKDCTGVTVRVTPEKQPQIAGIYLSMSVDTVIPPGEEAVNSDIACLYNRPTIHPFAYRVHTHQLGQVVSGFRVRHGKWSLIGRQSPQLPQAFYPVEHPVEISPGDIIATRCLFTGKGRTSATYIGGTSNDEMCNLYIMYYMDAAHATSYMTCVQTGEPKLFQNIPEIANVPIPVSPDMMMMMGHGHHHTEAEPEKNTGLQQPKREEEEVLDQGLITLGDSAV
Procedure: The 0.1 μg of the enzyme preparation AE-I prepared in Example 1 was incubated with 4 nmoles of Tyr-Gly-Gly-Phe-Met-Arg-Arg-Val-Gly as a substrate in 250 μl of a 0.2M Tris-HCl buffer (pH 7.0) containing 2 μM CuSO4, 0.25 mM ascorbic acid, 25 μg catalase, and 0.1% Lubrol, at 37° C. for 24 hours. After the reaction was terminated by the addition of 250 μl of 1% trifluoroacetic acid, the reaction mixture was applied to a TSK ODS-120A column (0.4×25 cm; Toyosoda), and elution was carried out using a linear gradient of 12 to 60% CH3 CN in 0.1% trifluoroacetic acid at a flow rate of 1.5 ml/min. The elute was analyzed for absorbance at 210 nm. FIG. 7A represents an elution pattern for a sample of the reaction mixture taken at 0 time, i.e., before the reaction, and FIG. 7B represents an elution pattern for a sample of the reaction mixture taken 24 hours after the reaction has started. […] In FIG. 7, arrows b and a represent positions at which the peaks of authentic substrate and authentic adrenorphin Tyr-Gly-Gly-Phe-Met-Arg-Arg-Val-NH2 respectively appear under the same condition. Adrenorphin corresponds to a peptide wherein C-terminal glycine has been converted to α-amide. Since the positions 1 and 2 match the positions a and b respectively, it is reasonable to assume that the reaction product corresponding to peak 1 is adrenorphin. This means that the enzyme of the present invention amidated the substrate at its C-terminal. To confirm this conclusion, the fraction 1 in FIG. 7 was hydrolyzed in 6M HCl at 110° C. for 24 hours, and the amino acid composition of the hydrolyzate was analyzed using an amino acid analyzer. Moreover, the presence of the C-terminal amide group in the fraction 1 was analyzed by thermolysin digestion followed by thin layer chromatography. All of the results confirmed that the reaction product is adrenorphin.
The same procedure as described in Example 3 was repeated except that, in place of Tyr-Gly-Gly-Phe-Met-Arg-Arg-Val-Gly(FIG. 8Δ), following substrates were used: […]

[2] = target: T1, C-terminal α-amidating enzyme AE-I; test: Kinetic constants of AE-I from Lineweaver-Burk plots; details: standard conditions
Procedure: (§1) C-terminal α-amidating enzyme of the present invention is assayed using synthetic peptide [^125 I]-Ac-Tyr-Phe-Gly as a substitute according to the following procedure. [^125 I]-Ac-Tyr-Phe-Gly (1 pmole, 70,000-150,000 cpm) was incubated with an enzyme preparation, in a final volume of 250 μl containing 0.2M Tris-HCl buffer (pH 7.0), 2 μM CuSo4, 0.25 mM ascorbic acid, 25 μg catalase (Boehringer), 0.1% Lubrol (PX type, Nakarai Chemicals). The reaction mixture was kept at 37° C. for 1 to 4 hours. Then 0.75 ml of 1M Tris-HCl buffer (pH 7.0) and 2 ml of the organic phase of an ethyl acetate/water mixture was added. Two phases were mixed vigorously on a Vortex mixer. After centrifugation at 3000 rpm for 3 min, the organic phase thus separated was transferred to another test tube. The radioactivity in organic and aqueous layers was each measured by a gamma scintillation counter. Under the conditions described above, over 98% of radioactivity of the authentic [^125 I]-Ac-Tyr-Phe-Gly was retained in an aqueous phase and over 98% of radioactivity of the authentic [^125 I]-Ac-Tyr-Phe-NH2 was transferred to an organic phase. The yield of conversion was calculated from the ratio of the radioactivity in ethyl acetate phase to the total radioactivity. In this assay, one unit is defined as an amount of enzyme which converts 50% of added substrate [^125 I]-Ac-Try-Phe-Gly to [^125 I]-Ac-Tyr-Phe-NH2.

[3] = target: T1, C-terminal α-amidating enzyme AE-I; test: Effect of substances on enzyme activity of AE-I
Procedure: as §1, with “Under the conditions described above, over 98% of radioactivity of the authentic [^125 I]-Ac-Tyr-Phe-Gly was retained in an aqueous phase and over 98% of radioactivity of the authentic [^125 I]-Ac-Tyr-Phe-NH2 was transferred to an organic phase.” left out

## Ac-Tyr-Phe-Gly
[1]
  Conversion of substrate by AE-I (FIG. 8): converted to the corresponding des-Gly peptide α-amides
[2]
  Km: 0.35 µM
  Vmax: 1.9 nmol/µg/h

## YGGFMRRVGRPE [BAM-12P]
[1]
  Conversion of substrate by AE-I (FIG. 8): not affected by the enzyme

## [dY]-Gly-Gly
[1]
  Conversion of substrate by AE-I (FIG. 8): converted to the corresponding des-Gly peptide α-amides

## O=S(=O)([O-])[O-].[Cu+2] [CuSO4]
[3]; additional 1.2 mM CuSO4 in presence of 1 mM dithiothreitol
  Effect on enzyme activity inhibited by the thiol compound: restores the enzyme activity
[3]; additional more than 0.12 mM CuSO4 in presence of 0.1 mM EDTA
  Effect on enzyme activity inhibited by EDTA: restores the enzyme activity

## Tyr-Gly-Gly-Phe-Met-Arg-Arg-Val [desamido-adrenorphin]
[1]
  Conversion of substrate by AE-I (FIG. 8): not affected by the enzyme

## [dY]-Val-Gly
[1]
  Conversion of substrate by AE-I (FIG. 8): converted to the corresponding des-Gly peptide α-amides

## CCN1C(=O)C=CC1=O [N-ethylmaleimide]
[3]; 5 mM N-ethylmaleimide in presence of 1 mM dithiothreitol
  Effect on enzyme activity inhibited by the thiol compound: restores the enzyme activity

## O=C(O)CN(CCN(CC(=O)O)CC(=O)O)CC(=O)O [EDTA]
[3]; 0.1 mM EDTA
  Effect on enzyme activity: inhibited

## O[C@H](CS)[C@H](O)CS (racemic) [dithiothreitol]
[3]; 1 mM dithiothreitol
  Effect on enzyme activity: inhibited

## [Cu+2] [Cu^++]
[3]
  Requirement of Cu++ cation for enzyme activity: essential

## Tyr-Phe-Gly
[1]
  Conversion of substrate by AE-I (FIG. 8): converted to the corresponding des-Gly peptide α-amides
